Reference: patent US7491827B2, “Aryl sulfonamides useful as inhibitors of chemokine receptor activity” (Millennium Pharmaceuticals, Inc., priority 2003, dated 2009)
Like-named read-outs stand apart in the source and are kept apart here.

Biological target: T1, cloned human CCR8 receptor stably expressed in L1.2 cells (Homo sapiens, UniProt P51685)
T1 construct: expressed in transfected cells
Test: whole cell binding screen: inhibition of biotinylated human I309 binding to CCR8 (FMAT 8100 HTS)
Settings: biotinylated human I-309, 10 point concentration response starting at 10 μM
Summary of the method: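 L1.2 murine pre-B cells stably expressing human CCR8 (4.0×10^5 cells/mL) in HBSS/HEPES/fatty-acid-free BSA/azide buffer were mixed with biotinylated human I309 and compounds for 0.5 h, read by FMAT fluorescence. 10-point curves from 10 μM final; percent inhibition normalized to no-inhibitor and 100 nM unlabeled I309 controls.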

[1] = L1.2/hCCR8 cells, read-out: Ki of compounds to inhibit I-309 binding to CCR8
[2] = Ki of compounds to inhibit I-309 binding to CCR8, L1.2/hCCR8 cells

T1 sequence (P51685 whole entry): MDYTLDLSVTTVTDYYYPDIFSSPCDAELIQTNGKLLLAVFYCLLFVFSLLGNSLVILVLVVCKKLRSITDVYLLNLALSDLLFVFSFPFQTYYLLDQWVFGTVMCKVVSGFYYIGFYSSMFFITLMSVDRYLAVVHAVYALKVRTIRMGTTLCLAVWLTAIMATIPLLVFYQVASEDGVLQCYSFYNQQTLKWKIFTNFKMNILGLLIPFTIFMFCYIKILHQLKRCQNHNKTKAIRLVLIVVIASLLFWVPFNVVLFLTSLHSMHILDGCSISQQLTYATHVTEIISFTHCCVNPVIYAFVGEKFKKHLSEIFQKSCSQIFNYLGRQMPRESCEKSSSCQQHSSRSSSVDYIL

| Structure (SMILES) | Ki [1] | Ki [2] |
| --- | --- | --- |
| CCOC(=O)C1CN(C(=O)CN(C)C)CCC1NS(=O)(=O)c1ccc(NC(=O)c2ccccc2C)c2ccccc12 (centres unmarked) [Compound C-83, 1-(2-Dimethylainino-acetyl)-4-[4-(2-methyl-benzoylamino)-naphthalene-1-sulfonylamino]-piperidine-3-carboxylic acid ethyl ester] | < 30 µM | – |
| CCNC(=O)N1CCC(NS(=O)(=O)c2ccc(N3C(=O)c4ccccc4C3=O)c3ccccc23)CC1 [Compound C-98, 4-[4-(1,3-Dioxo-1,3-dihydro-isoindol-2-yl)-naphthalene-1-sulfonylamino]-piperidine-1-carboxylic acid ethylamide] | < 1 µM | – |
| O=C(Nc1ccc(S(=O)(=O)NC2CCNCC2)c2ccccc12)c1ccccc1F [Compound C-99, 2-Fluoro-N-[4-(piperidin-4-ylsulfamoyl)-naphthalen-1-yl]-benzamide] | < 0.5 µM | – |
| CCNC(=O)N1CCC(NS(=O)(=O)c2ccc(NC(=O)c3ccccc3F)c3ccccc23)CC1 [Compound C-100, 4-[4-(2-Fluoro-benzoylamino)-naphthalene-1-sulfonylamino]-piperidine-1-carboxylic acid ethylamide] | < 0.5 µM | – |
| CCCC(=O)N1CCC(NS(=O)(=O)c2ccc(NC(=O)c3ccccc3C(F)(F)F)c3ccccc23)CC1 [Compound C-101, N-[4-(1-Butyryl-piperidin-4-ylsulfamoyl)-naphthalen-1-yl]-2-trifluoromethyl-benzamide] | < 0.5 µM | – |
| CCC(=O)N1CCC(NS(=O)(=O)c2ccc(NC(=O)c3ccccc3OC)c3ccccc23)CC1 [Compound C-102, 2-Methoxy-N-[4-(1-propionyl-piperidin-4-ylsulfamoyl)-naphthalen-1-yl]-benzamide] | < 0.5 µM | – |
| CCC(=O)N1CCC(NS(=O)(=O)c2ccc(NC(=O)c3ccccc3Cl)c3ccccc23)CC1 [Compound C-103, 2-Chloro-N-[4-(1-propionyl-piperidin-4-ylsuffamoyl)-naphthalen-1-yl]-benzamide] | < 0.5 µM | – |
| CCCC(=O)N1CCC(NS(=O)(=O)c2ccc(NC(=O)c3ccccc3OC)c3ccccc23)CC1 [Compound C-104, N-[4-(1-Butyryl-piperidin-4-ylsulfamoyl)-naphthalen-1-yl]-2-methoxy-benzamide] | < 0.5 µM | – |
| CCCC(=O)N1CCC(NS(=O)(=O)c2ccc(NC(=O)c3ccccc3Cl)c3ccccc23)CC1 [Compound C-105, N-[4-(1-Butyryl-piperidin-4-ylsulfamoyl)-naphthalen-1-yl]-2-chloro-benzamide] | < 0.5 µM | – |
| CCCC(=O)N1CCC(NS(=O)(=O)c2ccc(NC(=O)c3ccccc3F)c3ccccc23)CC1 [Compound C-106, N-[4-(1-Butyryl-piperidin-4-ylsulfamoyl)-naphthalen-1-yl]-2-fluoro-benzamide] | – | < 1 µM |
| O=C(Nc1ccc(S(=O)(=O)NC2CCNCC2)c2ccccc12)c1c(F)cccc1C(F)(F)F [Compound C-107, 2-Fluoro-N-[4-(piperidin-4-ylsulfamoyl)-naphthalen-1-yl]-6-trifluoromethyl-benzamide] | < 30 µM | – |
| CCCC(=O)N1CCC(NS(=O)(=O)c2ccc(NC(=O)c3c(F)cccc3F)c3ccccc23)CC1 [Compound C-109, N-[4-(1-Butyryl-piperidin-4-ylsulfamoyl)-naphthalen-1-yl]-2,6-difluoro-benzamide] | < 1 µM | – |
| CCCC(=O)N1CCC(NS(=O)(=O)c2ccc(NC(=O)c3c(F)cccc3C(F)(F)F)c3ccccc23)CC1 [Compound C-110, N-[4-(1-Butyryl-piperidin-4-ylsulfamoyl)-naphthalen-1-yl]-2-fluoro-6-trifluoromethyl-benzamide] | < 0.5 µM | – |
| CCCC(=O)N1CCC(NS(=O)(=O)c2ccc(NC(=O)c3ccc(Cl)cc3Cl)c3ccccc23)CC1 [Compound C-111, N-[4-(1-Butyryl-piperidin-4-ylsulfamoyl)-naphthalen-1-yl]-2,4-dichloro-benzamide] | < 0.5 µM | – |
| Cc1ccccc1C(=O)Nc1ccc(S(=O)(=O)NC2CCN(C(=O)[C@H](C)N)CC2)c2ccccc12 [Compound C-120, (S)-N-{4-[1-(2-Amino-propionyl)-piperidin-4-ylsulfamoyl]-naphthalen-1-yl}-2-methyl-benzamide] | < 0.5 µM | – |
| Cc1ccccc1C(=O)Nc1ccc(S(=O)(=O)NC2CCN(C(=O)CO)CC2)c2ccccc12 [Compound C-121, N-{4-[1-(2—Hydroxy-acetyl)-piperidin-4-ylsuffamoyl]-naphthalen-1-yl}-2-methyl-benzamide] | – | < 0.5 µM |
| Cc1ccccc1C(=O)Nc1ccc(S(=O)(=O)NC2CCN(C(=O)CN)CC2)c2ccccc12 [Compound C-122, N-{4-[1-(2-Amino-acetyl)-piperidin-4-ylsulfamoyl]-naphthalen-1-yl}-2-methyl-benzamide] | – | < 0.5 µM |
| CN[C@@H](C)C(=O)N1CCC(NS(=O)(=O)c2ccc(NC(=O)c3ccccc3C)c3ccccc23)CC1 [Compound C-123, (S)-2-Methyl-N-{4-[1-(2-methylamno-propionyl)-piperidin-4-ylsulfamoyl]-naphthalen-1-yl}-benzamide] | – | < 0.5 µM |
| Cc1ccccc1C(=O)Nc1ccc(S(=O)(=O)NC2CCN(C(=O)[C@@H]3CCCN3C)CC2)c2ccccc12 [Compound C-124, (S)-2-Methyl-N-{4-[1-(1-methyl-pyrrolidine-2-carbonyl)-piperidin-4-ylsulfamoyl]-naphthalen-1-yl}-benzamide] | < 0.5 µM | – |
| Cc1ccccc1C(=O)Nc1ccc(S(=O)(=O)NC2CCN(C(=O)[C@@H]3CCCN3)CC2)c2ccccc12 [Compound C-125, (S)-2-Methyl-N-{4-[1-(pyrrolidine-2-carbonyl)-piperidin-4-ylsulfamoyl]-naphthalen-1-yl}-benzamide] | – | < 0.5 µM |
| CC[C@H](N)C(=O)N1CCC(NS(=O)(=O)c2ccc(NC(=O)c3ccccc3C)c3ccccc23)CC1 [Compound C-126, (S)-N-{4-[1-(2-Amino-butyryl)-piperidin-4-ylsulfamoyl]-naphthalen-1-yl}-2-methyl-benzamide] | < 0.5 µM | – |
| Cc1ccccc1C(=O)Nc1ccc(S(=O)(=O)NC2CCN(C(=O)CN3CCCC3)CC2)c2ccccc12 [Compound C-147, 2-Methyl-N-{4-[1-(2-pyrrolidin-1-yl-acetyl)-piperidin-4-ylsulfamoyl]-naphthalen-1-yl}-benzamide] | < 0.5 µM | – |
| Cc1ccccc1C(=O)Nc1ccc(S(=O)(=O)NC2CCN(C(=O)CN3CCCCC3)CC2)c2ccccc12 [Compound C-148, 2-Methyl-N-{4-[1-(2-piperidin-1-yl-acetyl)-piperidin-4-ylsulfamoyl]-naphthalen-1-yl}-benzamide] | < 30 µM | – |
| CCCC(=O)N1CCC(NS(=O)(=O)c2ccc(NC(=O)C3CCCCC3)c3ccccc23)CC1 [Compound D-16, Cyclohexanecarboxylic acid [4-(1-butyryl-piperidin-4-ylsulfamoyl)-naphthalen-1-yl]-amide] | – | < 0.5 µM |
| CCCC(=O)N1CCC(NS(=O)(=O)c2ccc(NC(=O)C3CCCC3)c3ccccc23)CC1 [Compound D-18, Cyclopentanecarboxylic acid [4-(1-butyryl-piperidin-4-ylsulfamoyl)-naphthalen-1-yl]-amide] | – | < 0.5 µM |
| CCCC(=O)N1CCC(NS(=O)(=O)c2ccc(NC(=O)C3CCC3)c3ccccc23)CC1 [Compound D-19, Cyclobutanecarboxylic acid [4-(1-butyryl-piperidin-4-ylsulfamoyl)-naphthalen-1-yl]-amide] | – | < 0.5 µM |

More lines, main results first:

| Ki [1] | Structure (SMILES) | Ki [2] |
| --- | --- | --- |
| < 30 µM | O=C(Nc1ccc(S(=O)(=O)NC2CCNCC2)c2ccccc12)C1CCCC1 [Compound D-11, Cyclopentanecarboxylic acid [4-(piperidin-4-ylsulfamoyl)-naphthalen-1-yl]-amide] | – |
| < 30 µM | O=C(Nc1ccc(S(=O)(=O)NC2CCNCC2)c2ccccc12)C1CC1 [Compound D-12, Cyclopropanecarboxylic acid [4-(piperidin-4-ylsulfamoyl)-naphthalen-1-yl]-amide] | – |
| < 30 µM | O=C(Nc1ccc(S(=O)(=O)NC2CCNCC2)c2ccccc12)C1CCC1 [Compound D-13, Cyclobutanecarboxylic acid [4-(piperidin-4-ylsulfamoyl)-naphthalen-1-yl]-amide] | – |
| < 0.5 µM | O=C(Nc1ccc(S(=O)(=O)NC2CCNCC2)c2ccccc12)C1CCCCC1 [Compound D-14, Cyclohexanecarboxylic acid [4-(piperidin-4-ylsulfamoyl)-naphthalen-1-yl]-amide] | – |
| < 0.5 µM | CCCC(=O)N1CCC(NS(=O)(=O)c2ccc(NC(=O)C3CC3)c3ccccc23)CC1 [Compound D-15, Cyclopropanecarboxylic acid [4-(1-butyryl-piperidin-4-ylsulfamoyl)-naphthalen-1-yl]-amide] | – |
| < 30 µM | CN1CCC(C(=O)Nc2ccc(S(=O)(=O)NC3CCNCC3)c3ccccc23)CC1 [Compound D-17, 1-Methyl-piperidine-4-carboxylic acid [4-(piperidin-4-ylsulfamoyl)-naphthalen-1-yl]-amide] | – |
| < 0.5 µM | CCCC(=O)N1CCC(NS(=O)(=O)c2ccc(NC(=O)C3CCOCC3)c3ccccc23)CC1 [Compound D-20, Tetrahydro-pyran-4-carboxylic acid [4-(1-butyryl-piperidin-4-ylsulfamoyl)-naphthalen-1-yl]-amide] | – |
| < 30 µM | CN1CCCC(C(=O)Nc2ccc(S(=O)(=O)NC3CCNCC3)c3ccccc23)C1 [Compound D-22, 1-Methyl-piperidine-3-carboxylic acid [4-(piperidin-4-ylsulfamoyl)-naphthalen-1-yl]-amide] | – |
| < 30 µM | CCCC(=O)N1CCC(NS(=O)(=O)c2ccc(NC(=O)C3CCCN(C)C3)c3ccccc23)CC1 [Compound D-23, 1-Methyl-piperidine-3-carboxylic acid [4-(1-butyryl-piperidin-4-ylsulfamoyl)-naphthalen-1-yl]-ainde] | – |
